Results: patent EP2229935A1, “Peptide derivatives or pharmaceutically acceptable salts thereof, method for producing the same, use of said derivatives and pharmaceutical composition” (Nebolsin, Vladimir Evgenievich, priority 1997, dated 1999)

Experiments:
[1] = tested on: mongrel female rats; test: Hepatoprotective activity: subchronic liver lesion (hepatitis) with CCl4; assay type: in vivo; conditions: for Cholesterol level, mg/100 ml VLDL-CS / Cholesterol level, mg/100 ml LDL-CS / Cholesterol level, mg/100 ml HDL-CS / Cholesterol level, mg/100 ml total-CS / TG level, mg/100ml / ALT, nM/dl / AST, nM/dl / Hepatic MDA, nM/l / Serum MDA, nM/l: rats, CCl4 hepatitis; for Cholesterol level, mg/100 ml VLDL-CS / Cholesterol level, mg/100 ml LDL-CS / Cholesterol level, mg/100 ml HDL-CS / Cholesterol level, mg/100 ml total-CS / TG level, mg/100ml / ALT, nM/dl / AST, nM/dl: blood serum; for Cholesterol level, mg/100 ml VLDL-CS: TG/5; for Cholesterol level, mg/100 ml LDL-CS: calculated by formula; for ALT, nM/dl / AST, nM/dl: oral 8 days
Experimental: Hepatoprotective properties of the compounds were studied on a model of subchronic liver lesion (hepatitis) with carbon quadrichloride.
70 mongrel female rats with initial body mass 190-200 g fed a standard vivarium ration, were used in experiment. Animals were divided into 7 groups (10 rats each): • Group 1 - control one; during the first four days of experiment animals were subcutaneously injected 0.2 ml vaseline oil; • Group 2 - during the first four days animals were subcutaneously injected 50% CCl4 solution in vaseline oil at a rate of 0.1 ml per 100 g body mass; • Group 3 - Legalon in a starch gel was administered orally for 8 days at a dose 30 mg/kg against the background of CCl4 administration; […] , resepectively, was administered in a way similar to group III; […] , resepectively, was administered in a way similar to group III.
The test compounds and Legalon were administered to animals 1 hour prior to CCl4 administration. 24 hours after the last administration of the drugs, animals were decapitated.
Activity of blood serum transaminases ALT and AST was assessed using the conventional Frenkel-Rightman method [Laboratory examination methods in the clinic. Ed. by Menshikov V.V. Moscow, Meditsina publishers (1969), 302 pp.].
The published method [Rodionova L.P. Modification of blood serum trigyceride level determination method. Laboratomoye delo (Laboratory Matter) (1980), No 5, pp. 297-299] was used to determine blood serum TG level.
Blood serum LP final product MDA was determined using the published method [Korobeinikova E.N. Modification of lipid peroxydation product determination in reaction with thiobarbituric acid. Laboratomoye delo (Laboratory Matter) (1989), No 7, pp. 8-10]. Concentration of TBA-active products was calculated using regression equation: C = 0.21 + 0.26D, [formula] where C - concentration of TBA-active products (in nM MDA per 1 ml of serum), D - index D535 -D580 (in optic density units).
Total hepatic lipids were extracted using the modified Folch method [Cates M. Technology of Lipidology. Moscow, Mir publishers (1975), pp. 74-76]. Quantative content of lipid fractions was assessed with thin layer chromatography method (TLC) using the system of solvents hexane:diethyl ether:acetic acid at ratio 80:20:2. Zones of individual lipid fractions were determined using 10% alcohol solution of phosphoromolyobdenic acid which following elution were spectrophotometrically analysed at 600 nm.
Hepatic MDA level was determined using the published method [Stalnaya I.D., Garishvili T.G. Malonic dialdehyde determination method using thiobarbituric acid. In: Modem methods in biochemistry. Moscow, Meditsina publishers (1977), pp. 66-69]. MDA quantity was calculated using molar extinction coefficient value of stained trimethynic complex formed by MDA with two TBA molecules: E = 1.56 × 10^5 (cm)^-1 × M^-1 [formula]

[2] = tested on: progesterone, 17-oxyprogesterone, 11-desoxycortisol and cortisol; test: Blood serum hormone levels (radioimmunoassay); assay type: in vivo, guinea pigs; conditions: intact and sensitized guinea pigs, compared with compound XLIV
Experimental: Sensibilization of animals was done as described in example 27. Blood for hormonal level determination was sampled in animals before commencement of experiment and 18 hours after the last drug administration from 10 to 11 hours. […] A comparative hormonal state analysis was carried out by individual changes in each animal in a group. Mean parametric values expressed in nM/l, are presented by the groups in table 21.
Blood serum levels of the hormones progesterone, 17-oxyprogesterone, 11-desoxycortisol and cortisol were determined by radioimmunoassay using the Beloris company kits. Hormone concentration in samples was determined by the relation graph between the activity of a precipitated bound labelled hormone and hormone concentration in the calibration samples.

[3] = tested on: Human lymphocytes; test: Concanavalin A-induced blasttransformation of lymphocytes; assay type: cell-based
Experimental: Human lymphocytes were used for blasttransformation reaction [Kiseleva E.P., Tsveibakh A.S., Goldman E.I., Pigareva N.V. Application of a micromethod to study blasttransformation of lymphocytes in humans and animals. Immunology (1985), No 1, pp. 76-78]. 10 ml blood were collected into a sterile syringe containing heparine (to final concentration 25 U/ml) and incubated to sediment red blood cells (60-90 minutes at 37°C). Leukocytic suspension layer was selected and the number of nucleated cells was calculated. The cells obtained in such a way were incubated for 72 hours in a humid atmosphere with 5% CO2 at 37°C in the cells of plates for immune reactions in RPMI-1640 medium comprising 15% fetal calf serum, […] Neomycine (incubation mixture volume 0.15 ml). 5 x 10^5 cells were introduced into each plate cell. Incubation was carried out in the presence or absence of mitogen phytohemagglutinin (PHA) (Sigma) […] or concanavalin A (ConA) (Sigma) […] with or without addition of the test compounds at different concentrations. […] H^3 -thymidine in RPMI-1640 medium were introduced into each cell 16 hours before incubation termination. Following culturing period termination, 0.15 ml cellular suspension from each plate cell were transferred on the FN-8 paper filters. Filters were dried, washed two times with normal saline for 5 minutes then twice with TCA for 60 minutes. After drying, radioactivity of samples was calculated on a counter in the ZhS-8 scintillator. Stimulation index was calculated as ratio of sample radioactivity with mitogen to sample radioactivity without mitogen.

`O=C(O)CCCC(=O)NCCc1c[nH]cn1` [compound III, N-GLUTARYLHISTAMINE] was tested, and the “Lipid composition (in percent of total lipids) FCS” value ([1]; 5e-05 mg/kg) was 20.3 ± 0.8 p<0.05% of total lipids, the “Lipid composition (in percent of total lipids) Phospholipids” value ([1]; 5e-05 mg/kg) was 24.4 ± 0.7 p<0.05% of total lipids and the “Lipid composition (in percent of total lipids) Triglycerides” value ([1]; 5e-05 mg/kg) was 35.5 ±1.1% of total lipids. The “Lipid composition (in percent of total lipids) FCS” value ([1]; 0.0005 mg/kg) was 18.9 ± 0.7% of total lipids, the “Lipid composition (in percent of total lipids) Phospholipids” value ([1]; 0.0005 mg/kg) was 23.8 ± 1.0 p<0.05% of total lipids and the “Lipid composition (in percent of total lipids) Triglycerides” value ([1]; 0.0005 mg/kg) was 35.3 ± 0.7% of total lipids. The “Cholesterol level, mg/100 ml VLDL-CS” value ([1]; 0.05 µg/kg) was 17.7 ± 2.0 mg/100 ml, the “Cholesterol level, mg/100 ml VLDL-CS” value ([1]; 0.5 µg/kg) was 15.8 ± 1.0 p<0.05 mg/100 ml and the “Cholesterol level, mg/100 ml LDL-CS” value ([1]; 0.05 µg/kg) was 19.6 ± 1.4 p<0.01 mg/100 ml. For the same compound, the “Cholesterol level, mg/100 ml LDL-CS” value ([1]; 0.5 µg/kg) was 12.0 ± 0.6 mg/100 ml, the “Cholesterol level, mg/100 ml HDL-CS” value ([1]; 0.05 µg/kg) was 52.3 ± 2.9 mg/100 ml and the “Cholesterol level, mg/100 ml total-CS” value ([1]; 0.05 µg/kg) was 89.5 ± 3.8 mg/100 ml. The “TG level, mg/100ml” value ([1]; 0.05 µg/kg) was 88.0 ± 10.2 mg/100ml, the “Cholesterol level, mg/100 ml HDL-CS” value ([1]; 0.5 µg/kg) was 59.3 ± 2.6 mg/100 ml and the “Cholesterol level, mg/100 ml total-CS” value ([1]; 0.5 µg/kg) was 87.0 ± 2.6 mg/100 ml. The “TG level, mg/100ml” value ([1]; 0.5 µg/kg) was 78.6 ± 5.4 p<0.05 mg/100ml, the “ALT, nM/dl” value ([1]; daily dose 0.05 mg/kg) was 624 ± 31 nM/dl and the “AST, nM/dl” value ([1]; daily dose 0.05 mg/kg) was 478 ± 26 nM/dl. For the same compound, the “ALT, nM/dl” value ([1]; daily dose 0.50 mg/kg) was 609 ± 42 nM/dl, the “AST, nM/dl” value ([1]; daily dose 0.50 mg/kg) was 522 ± 33 nM/dl and the “Hepatic MDA, nM/l” value ([1]; 0.05 mg/kg) was 5.00 ± 0.15 p<0.05 nM/l. For the same compound, the “Serum MDA, nM/l” value ([1]; 0.05 mg/kg) was 5.86 ± 0.70 nM/l, the “Hepatic MDA, nM/l” value ([1]; 0.50 mg/kg) was 4.60 ± 0.52 p<0.05 nM/l and the “Serum MDA, nM/l” value ([1]; 0.50 mg/kg) was 5.77 ± 0.15 p<0.05 nM/l. The hormonal state changes [2] was “the same hormonal state changes were observed”, the “blasttranformation reaction of human lymphocytes induced by ConA” value [3] was “stimulating effect” and the “Radioactivity, number of pulses for 20 seconds” value (“Radioactivity, number of pulses” below) ([3]; 10^-3 M/l, +ConA) was 680 ± 82 number of pulses for 20 seconds. For the same compound, the Stimulation index ([3]; 10^-3 M/l, +ConA) was 2.06, the “Radioactivity, number of pulses” value ([3]; 10^-3 M/l, no mitogen) was 330 ± 105 number of pulses for 20 seconds and the “Radioactivity, number of pulses” value ([3]; 10^-4 M/l, +ConA) was 1197±97 number of pulses for 20 seconds. The Stimulation index ([3]; 10^-4 M/l, +ConA) was 4.37, the “Radioactivity, number of pulses” value ([3]; 10^-4 M/l, no mitogen) was 274 ± 28 number of pulses for 20 seconds and the “Radioactivity, number of pulses” value ([3]; 10^-5 M/l, +ConA) was 1562 ± 134 number of pulses for 20 seconds. The Stimulation index ([3]; 10^-5 M/l, +ConA) was 3.34, the “Radioactivity, number of pulses” value ([3]; 10^-5 M/l, no mitogen) was 467 ± 109 number of pulses for 20 seconds and the “Radioactivity, number of pulses” value ([3]; 10^-6 M/l, +ConA) was 1922 ± 248 number of pulses for 20 seconds. For the same compound, the Stimulation index ([3]; 10^-6 M/l, +ConA) was 4.71, the “Radioactivity, number of pulses” value ([3]; 10^-6 M/l, no mitogen) was 408 ± 75 number of pulses for 20 seconds and the “Radioactivity, number of pulses” value ([3]; 10^-7 M/l, +ConA) was 1483 ± 67 number of pulses for 20 seconds. For the same compound, the Stimulation index ([3]; 10^-7 M/l, +ConA) was 3.10, the “Radioactivity, number of pulses” value ([3]; 10^-7 M/l, no mitogen) was 478 ± 35 number of pulses for 20 seconds and the “Radioactivity, number of pulses” value ([3]; 10^-8 M/l, +ConA) was 849 ± 133 number of pulses for 20 seconds. For the same compound, the Stimulation index ([3]; 10^-8 M/l, +ConA) was 3.63 and the “Radioactivity, number of pulses” value ([3]; 10^-8 M/l, no mitogen) was 234 ± 36 number of pulses for 20 seconds.
